Experimental data from ChEMBL document CHEMBL1949563, “1,3,4-Thiadiazole derivatives as selective inhibitors of iNOS versus nNOS: Synthesis and structure-activity dependence” (Eur J Med Chem, 2012).

How the values were obtained:
[1] = target: Nitric oxide synthase 1 (Homo sapiens) (UniProt P29475); experiment: Inhibition of nNOS assessed as conversion of L-[3H]arginine to L-[3H]-citrulline at 50 uM after 30 mins by scintillation counting
[2] = target: T1, Nitric oxide synthase, inducible (Homo sapiens, UniProt P35228); experiment: Inhibition of iNOS assessed as conversion of L-[3H]arginine to L-[3H]-citrulline at 50 uM after 30 mins by scintillation counting
[3] = target: T1, Nitric oxide synthase, inducible; experiment: Inhibition of iNOS assessed as conversion of L-[3H]arginine to L-[3H]-citrulline after 30 mins by scintillation counting

Sequence of Nitric oxide synthase 1 (Homo sapiens) (P29475 whole entry): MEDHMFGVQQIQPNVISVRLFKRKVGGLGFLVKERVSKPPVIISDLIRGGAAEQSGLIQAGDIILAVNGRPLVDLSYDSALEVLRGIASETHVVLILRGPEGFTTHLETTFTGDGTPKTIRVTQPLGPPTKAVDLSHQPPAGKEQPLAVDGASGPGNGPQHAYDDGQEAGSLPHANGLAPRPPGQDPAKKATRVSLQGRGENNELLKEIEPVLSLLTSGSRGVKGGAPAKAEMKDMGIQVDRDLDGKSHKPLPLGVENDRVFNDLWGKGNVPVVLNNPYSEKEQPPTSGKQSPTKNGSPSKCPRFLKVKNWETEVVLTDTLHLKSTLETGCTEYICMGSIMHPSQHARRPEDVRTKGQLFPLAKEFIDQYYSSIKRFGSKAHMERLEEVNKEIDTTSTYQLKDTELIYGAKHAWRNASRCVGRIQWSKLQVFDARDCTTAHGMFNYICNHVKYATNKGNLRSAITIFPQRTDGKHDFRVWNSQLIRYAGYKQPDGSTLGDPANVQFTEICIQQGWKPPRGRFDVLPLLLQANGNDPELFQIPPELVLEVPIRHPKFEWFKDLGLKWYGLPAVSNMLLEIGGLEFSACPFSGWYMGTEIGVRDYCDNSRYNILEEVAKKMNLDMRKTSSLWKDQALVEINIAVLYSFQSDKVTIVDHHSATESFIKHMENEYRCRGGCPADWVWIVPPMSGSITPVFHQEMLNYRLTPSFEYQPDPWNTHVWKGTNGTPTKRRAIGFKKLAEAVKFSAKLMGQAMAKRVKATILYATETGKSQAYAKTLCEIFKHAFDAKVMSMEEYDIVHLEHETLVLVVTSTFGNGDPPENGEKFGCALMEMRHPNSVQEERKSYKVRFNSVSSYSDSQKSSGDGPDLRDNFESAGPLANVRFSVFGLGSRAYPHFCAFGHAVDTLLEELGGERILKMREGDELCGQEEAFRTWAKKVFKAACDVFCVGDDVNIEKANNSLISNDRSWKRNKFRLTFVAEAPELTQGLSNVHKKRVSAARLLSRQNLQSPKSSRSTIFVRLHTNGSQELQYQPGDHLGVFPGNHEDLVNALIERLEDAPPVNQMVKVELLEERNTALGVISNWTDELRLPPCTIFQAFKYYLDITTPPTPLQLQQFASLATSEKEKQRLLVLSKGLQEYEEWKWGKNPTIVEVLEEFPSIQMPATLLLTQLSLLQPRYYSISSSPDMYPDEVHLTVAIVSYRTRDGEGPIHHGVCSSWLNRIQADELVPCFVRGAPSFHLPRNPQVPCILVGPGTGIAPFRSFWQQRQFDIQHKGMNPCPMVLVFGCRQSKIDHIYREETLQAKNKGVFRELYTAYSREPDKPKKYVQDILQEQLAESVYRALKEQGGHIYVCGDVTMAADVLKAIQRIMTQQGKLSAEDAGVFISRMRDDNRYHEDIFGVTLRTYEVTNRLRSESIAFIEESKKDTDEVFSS
T1 sequence (P35228 whole entry): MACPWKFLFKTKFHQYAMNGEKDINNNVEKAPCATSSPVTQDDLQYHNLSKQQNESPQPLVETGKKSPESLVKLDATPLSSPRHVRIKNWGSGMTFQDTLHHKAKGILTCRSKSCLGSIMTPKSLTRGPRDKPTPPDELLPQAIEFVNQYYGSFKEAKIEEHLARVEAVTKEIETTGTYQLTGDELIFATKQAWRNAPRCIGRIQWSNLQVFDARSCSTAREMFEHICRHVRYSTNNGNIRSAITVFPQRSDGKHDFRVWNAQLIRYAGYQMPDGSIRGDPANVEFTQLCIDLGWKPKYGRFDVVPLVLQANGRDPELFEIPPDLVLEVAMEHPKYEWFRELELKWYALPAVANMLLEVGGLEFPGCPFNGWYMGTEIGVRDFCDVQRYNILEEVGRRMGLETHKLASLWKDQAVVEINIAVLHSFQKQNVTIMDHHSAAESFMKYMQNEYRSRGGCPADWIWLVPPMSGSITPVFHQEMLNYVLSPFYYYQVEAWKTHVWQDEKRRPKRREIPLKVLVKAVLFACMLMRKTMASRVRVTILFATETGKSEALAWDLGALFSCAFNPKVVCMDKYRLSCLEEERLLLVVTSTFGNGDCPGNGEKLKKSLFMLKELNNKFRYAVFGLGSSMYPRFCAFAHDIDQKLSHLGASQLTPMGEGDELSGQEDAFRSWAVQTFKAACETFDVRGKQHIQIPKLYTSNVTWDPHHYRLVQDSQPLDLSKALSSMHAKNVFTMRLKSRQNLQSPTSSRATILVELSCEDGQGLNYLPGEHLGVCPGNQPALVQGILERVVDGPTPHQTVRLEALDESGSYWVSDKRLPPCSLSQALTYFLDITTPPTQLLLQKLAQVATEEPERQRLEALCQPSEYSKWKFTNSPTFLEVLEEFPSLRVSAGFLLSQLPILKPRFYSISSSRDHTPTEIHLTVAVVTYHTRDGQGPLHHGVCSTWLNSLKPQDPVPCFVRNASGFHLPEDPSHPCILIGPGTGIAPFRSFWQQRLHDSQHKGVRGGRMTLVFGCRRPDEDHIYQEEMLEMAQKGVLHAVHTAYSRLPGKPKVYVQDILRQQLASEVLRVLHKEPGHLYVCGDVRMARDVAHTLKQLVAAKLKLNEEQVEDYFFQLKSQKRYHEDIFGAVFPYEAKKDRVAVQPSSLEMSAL

| SMILES | inhibition [1] [%] | inhibition [2] [%] | IC50 [3] [µM] |
| --- | --- | --- | --- |
| CC1(C)SC(c2cc(Cl)ccc2N)=NN1C(=O)C1CCCC1 | 8.37 | 21.3 |  |
| CC1(C)SC(c2ccccc2N)=NN1C(=O)c1ccccc1 | 42.4 | 39.8 |  |
| CCC(=O)N1N=C(c2cc(Cl)ccc2N)SC1(C)C | 18.3 | 1.07 |  |
| COc1ccc(N)c(C2=NN(C(C)=O)C(C)(C)S2)c1 | 43.3 | 77.1 |  |
| CC1(C)SC(c2ccccc2N)=NN1C(=O)C1CCCCC1 | 6.8 | 28 |  |
| CCCC(=O)N1N=C(c2cc(Cl)ccc2N)SC1(C)C | 27.7 | 66.2 |  |
| CC1(C)SC(c2cc(Cl)ccc2N)=NN1C(=O)C1CCCCC1 | 23.1 | 7.61 |  |
| CC1(C)SC(c2cc(Cl)ccc2N)=NN1C(=O)C1CCC1 | 4.56 | -4.65 |  |
| CC1(C)SC(c2cc(Cl)ccc2N)=NN1C(=O)c1ccccc1 | 23.6 | 20.8 |  |
| CC(=O)N1N=C(c2cc(Cl)ccc2N)SC1(C)C | 22.5 | 72.8 |  |
| CCCCC(=O)N1N=C(c2ccccc2N)SC1(C)C | 38 | 39 |  |
| CC1(C)SC(c2ccccc2N)=NN1C(=O)C1CCC1 | 2.98 | 46.9 |  |
| COc1ccc(N)c(C2=NN(C(=O)C3CCCCC3)C(C)(C)S2)c1 | 11.3 | 100 | 21.9 |
| CCCCC(=O)N1N=C(c2cc(Cl)ccc2N)SC1(C)C | 38 | 12.6 |  |
| CCCC(=O)N1N=C(c2cc(OC)ccc2N)SC1(C)C | 9.58 | 91.1 | 29.6 |
| CCC(=O)N1N=C(c2ccccc2N)SC1(C)C | 24.2 | 19.2 |  |
| CCCCC(=O)N1N=C(c2cc(OC)ccc2N)SC1(C)C | 14.6 | 101 |  |
| COc1ccc(N)c(C2=NN(C(=O)C3CCCC3)C(C)(C)S2)c1 | 17.4 | 65 |  |
| CC(=O)N1N=C(c2ccccc2N)SC1(C)C | 13.3 | 22.9 |  |
| COc1ccc(N)c(C2=NN(C(=O)C3CCC3)C(C)(C)S2)c1 | 13.7 | 57.8 |  |
| CCCC(=O)N1N=C(c2ccccc2N)SC1(C)C | 17.5 | 35.2 |  |
| COc1ccc(N)c(C2=NN(C(=O)c3ccccc3)C(C)(C)S2)c1 | 17.2 | 0 |  |
| CC1(C)SC(c2cc(Cl)ccc2N)=NN1C(=O)C1CC1 | 21.9 | 23.2 |  |
| CC1(C)SC(c2ccccc2N)=NN1C(=O)C1CCCC1 | 9.34 | 42.1 |  |
| COc1ccc(N)c(C2=NN(C(=O)C3CC3)C(C)(C)S2)c1 | 9.95 | 90 | 41 |
| CCC(=O)N1N=C(c2cc(OC)ccc2N)SC1(C)C | 8.85 | 73 |  |
| CC1(C)SC(c2ccccc2N)=NN1C(=O)C1CC1 | 7.32 | 93 | 34 |
